Measurements from patent publication US20130123460A1, “PEPTIDE FOR IMPROVING BIOSTABILITY OF BIOACTIVE SUBSTANCE, AND BIOACTIVE SUBSTANCE HAVING IMPROVED BIOSTABILITY” (priority 2010, published 2013).
“Also recorded” adds a separate entry of the source. Where two headings read alike, the source gives them in different places. Where no end group is shown, it is not given here.

How the values were obtained:
[1] = Plasma stability of GLP-1 peptide complex (remaining rate in rat plasma, HPLC/MS); assay type: in vitro ADME, SD rats; settings: for remaining at 8 h, 0.5 μmol/L / remaining at 48 h, 0.5 μmol/L: SD
Excerpt: SD rats were anesthetized with diethyl ether, whole blood was collected and a plasma fraction was separated therefrom.

[2] = biological target: T1, endogenous GLP-1 receptor (Mus musculus, UniProt O35659); assay: Insulin secretion capacity of GLP-1 peptide complex in MIN 6 cells;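 on all read-outs here: insulin released into the supernatant of MIN 6 cultures quantified by ELISA, absorbance read at 450 nm with 620 nm reference after substrate addition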; assay type: cell-based; settings: for Insulin secretion capacity (% of control): 1000 pM, control = native GLP-1 at 1000 pM; for Insulin secretion capacity (activity) compared with native GLP-1, in words: MIN 6 cells, 30, 100, 300 or 1000 pM (FIG. 2, FIG. 3)
T1 construct: expressing an endogenous GLP-1 receptor; endogenous in cells; host or cells: MIN 6 mouse insulinoma cells (obtained from a person)
T1 sequence (O35659 22-463): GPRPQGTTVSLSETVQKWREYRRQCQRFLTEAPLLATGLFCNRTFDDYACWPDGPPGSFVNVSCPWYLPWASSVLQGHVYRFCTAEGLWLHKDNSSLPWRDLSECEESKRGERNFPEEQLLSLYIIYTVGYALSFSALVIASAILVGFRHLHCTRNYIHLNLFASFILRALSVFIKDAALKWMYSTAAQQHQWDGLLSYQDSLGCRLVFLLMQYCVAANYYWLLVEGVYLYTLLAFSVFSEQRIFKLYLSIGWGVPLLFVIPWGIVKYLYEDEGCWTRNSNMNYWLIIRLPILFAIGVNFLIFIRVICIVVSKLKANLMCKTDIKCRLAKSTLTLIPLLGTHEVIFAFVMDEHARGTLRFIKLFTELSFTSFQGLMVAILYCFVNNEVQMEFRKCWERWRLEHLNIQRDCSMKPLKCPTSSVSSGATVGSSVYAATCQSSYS
Description: MIN 6 was seeded on a multi-plate, which was cultivated at 37° C. for 48 hours. After that, the culture was washed twice with a KRH buffer solution including 2 mM glucose solution (including NaCl 119 mM, KCl 4.74 mM, CaCl2 2.54 mM, MgCl2 1.19 mM, KH2PO4 1.19 mM, 10 mM HEPES buffer solution pH7.3, and 0.1% BSA), and then it was incubated at 37° C. for one hour. […] A supernatant thereof was recovered, and an amount of insulin secreted was measured. The measurement of the insulin was performed in an enzyme-linked immunosorbent assay (ELISA), and an absorbance was measured at 450 nm (a sub-wavelength: 620 nm) after the addition of a substrate.
EC50 values thereof were calculated in the same manner as in Part 2, and the influence on the bioactivity caused by the addition of the partial peptide of the GA module were inspected in detail.
The analysis was performed using the following calculation formula.

[3] = rat plasma, 0.5 μmol/L, 37° C., 8 hours, relative to 0 hour = 100%, read-out: Remaining rate in plasma after 8 hours (%)
[4] = rat plasma, 0.5 μmol/L, 37° C., 48 hours, relative to 0 hour = 100%, read-out: Remaining rate in plasma after 48 hours (%)
[5] = rat plasma, 0.5 μmol/L, 37° C., 48 hours, relative to 0 hour = 100%

CC[C@H](C)[C@H](NC(=O)[C@H](Cc1ccccc1)NC(=O)[C@H](CCC(=O)O)NC(=O)[C@H](CCCCN)NC(=O)[C@H](C)NC(=O)[C@H](C)NC(=O)[C@H](CCC(N)=O)NC(=O)CNC(=O)[C@H](CCC(=O)O)NC(=O)[C@H](CC(C)C)NC(=O)[C@H](Cc1ccc(O)cc1)NC(=O)[C@H](CO)NC(=O)[C@H](CO)NC(=O)[C@@H](NC(=O)[C@H](CC(=O)O)NC(=O)[C@H](CO)NC(=O)[C@@H](NC(=O)[C@H](Cc1ccccc1)NC(=O)[C@@H](NC(=O)CNC(=O)[C@H](CCC(=O)O)NC(=O)[C@H](CO)NC(=O)[C@@H](N)Cc1c[nH]cn1)[C@@H](C)O)[C@@H](C)O)C(C)C)C(=O)N[C@@H](C)C(=O)N[C@@H](Cc1c[nH]c2ccccc12)C(=O)N[C@@H](CC(C)C)C(=O)N[C@H](C(=O)N[C@@H](CCCCN)C(=O)NCC(=O)N[C@@H](CC(C)C)C(=O)N[C@H](C(=O)N[C@@H](CC(=O)O)C(=O)N[C@@H](CCC(=O)O)C(=O)N[C@H](C(=O)N[C@@H](CC(C)C)C(=O)N[C@@H](C)C(=O)N[C@@H](C)C(N)=O)[C@@H](C)CC)[C@@H](C)CC)C(C)C [Example 3, [Ser8]-GLP-1(7-35)-GAm(37-44)-NH2]
remaining at 8 h, 0.5 μmol/L [1, 3]: 113%
remaining at 48 h, 0.5 μmol/L [1, 4]: 95%
Insulin secretion capacity (% of control) ([2]; MIN 6 cells, 15 mM glucose): 82%

CC[C@H](C)[C@H](NC(=O)CNC(=O)[C@H](CCCCN)NC(=O)[C@@H](NC(=O)[C@H](CC(C)C)NC(=O)[C@H](Cc1c[nH]c2ccccc12)NC(=O)[C@H](C)NC(=O)[C@@H](NC(=O)[C@H](Cc1ccccc1)NC(=O)[C@H](CCC(=O)O)NC(=O)[C@H](CCCCN)NC(=O)[C@H](C)NC(=O)[C@H](C)NC(=O)[C@H](CCC(N)=O)NC(=O)CNC(=O)[C@H](CCC(=O)O)NC(=O)[C@H](CC(C)C)NC(=O)[C@H](Cc1ccc(O)cc1)NC(=O)[C@H](CO)NC(=O)[C@H](CO)NC(=O)[C@@H](NC(=O)[C@H](CC(=O)O)NC(=O)[C@H](CO)NC(=O)[C@@H](NC(=O)[C@H](Cc1ccccc1)NC(=O)[C@@H](NC(=O)CNC(=O)[C@H](CCC(=O)O)NC(=O)[C@H](C)NC(=O)[C@@H](N)Cc1c[nH]cn1)[C@@H](C)O)[C@@H](C)O)C(C)C)[C@@H](C)CC)C(C)C)C(=O)N[C@@H](CC(=O)O)C(=O)N[C@@H](CCC(=O)O)C(=O)N[C@H](C(=O)N[C@@H](CC(C)C)C(N)=O)[C@@H](C)CC [Example 5, GLP-1(7-35)-GAm(38-42)-NH2]
remaining at 8 h, 0.5 μmol/L [1, 3]: 73%
remaining at 48 h, 0.5 μmol/L [1, 4]: 83%
Insulin secretion capacity (% of control) ([2]; MIN 6 cells, 15 mM glucose): 112%

CC[C@H](C)[C@H](NC(=O)[C@H](Cc1ccccc1)NC(=O)[C@H](CCC(=O)O)NC(=O)[C@H](CCCCN)NC(=O)[C@H](C)NC(=O)[C@H](C)NC(=O)[C@H](CCC(N)=O)NC(=O)CNC(=O)[C@H](CCC(=O)O)NC(=O)[C@H](CC(C)C)NC(=O)[C@H](Cc1ccc(O)cc1)NC(=O)[C@H](CO)NC(=O)[C@H](CO)NC(=O)[C@@H](NC(=O)[C@H](CC(=O)O)NC(=O)[C@H](CO)NC(=O)[C@@H](NC(=O)[C@H](Cc1ccccc1)NC(=O)[C@@H](NC(=O)CNC(=O)[C@H](CCC(=O)O)NC(=O)[C@H](CO)NC(=O)[C@@H](N)Cc1c[nH]cn1)[C@@H](C)O)[C@@H](C)O)C(C)C)C(=O)N[C@@H](C)C(=O)N[C@@H](Cc1c[nH]c2ccccc12)C(=O)N[C@@H](CC(C)C)C(=O)N[C@H](C(=O)N[C@@H](CCCCN)C(=O)NCC(=O)N[C@@H](CC(C)C)C(=O)N[C@H](C(=O)N[C@@H](CC(=O)O)C(=O)N[C@@H](CCC(=O)O)C(=O)N[C@H](C(=O)N[C@@H](CC(C)C)C(=O)N[C@@H](C)C(=O)N[C@@H](C)C(=O)O)[C@@H](C)CC)[C@@H](C)CC)C(C)C [Example 20, [Ser8]-GLP-1(7-35)-GAm(37-44)]
remaining at 48 h, 0.5 μmol/L [1, 4]: 79%
Remaining rate in plasma after 8 hours (%) ([1]; rat plasma, 0.5 μmol/L, 37° C., 8 hours, relative to 0 hour = 100%): 125%
Insulin secretion capacity (% of control) ([2]; MIN 6 cells, 15 mM glucose): 98%

HAEGTFTSDVSSYLEGQAAKEFIAWLVKGGPKALIDEILAA-NH2 [Example 21, GLP-1(7-35)-Gly-Pro-GAm(35-44)-NH2]
remaining at 8 h, 0.5 μmol/L ([1]; rat, plasma): 86%
remaining at 48 h, 0.5 μmol/L ([1]; rat, plasma): 53%
Insulin secretion capacity (% of control) ([2]; MIN 6 cells, 15 mM glucose): 103%

HAEGTFTSDVSSYLEGQAAKEFIAWLVKGGPSGVKALIDEILAA-NH2 [Example 24, GLP-1(7-35)-Gly-Pro-Ser-GAm(33-44)-NH2]
remaining at 8 h, 0.5 μmol/L ([1]; rat, plasma): 90%
remaining at 48 h, 0.5 μmol/L ([1]; rat, plasma): 40%
Insulin secretion capacity (% of control) ([2]; MIN 6 cells, 15 mM glucose): 123%

HAEGTFTSDVSSYLEGQAAKEFIAWLVKGGPVKALIDEILAA-NH2 [Example 22, GLP-1(7-35)-Gly-Pro-GAm(34-44)-NH2]
remaining at 8 h, 0.5 μmol/L ([1]; rat, plasma): 98%
remaining at 48 h, 0.5 μmol/L ([1]; rat, plasma): 94%
Insulin secretion capacity (% of control) ([2]; MIN 6 cells, 15 mM glucose): 99%

HAEGTFTSDVSSYLEGQAAKEFIAWLVKGGVKALIDEILA-NH2 [Example 7, GLP-1(7-35)-GAm(33-43)-NH2]
remaining at 8 h, 0.5 μmol/L ([1]; rat, plasma): 94%
remaining at 48 h, 0.5 μmol/L ([1]; rat, plasma): 87%
Insulin secretion capacity (% of control) ([2]; MIN 6 cells, 15 mM glucose): 105%

HSEGTFTSDVSSYLEGQAAKEFIAWLVKGAKTVEGVKALIDEIL-NH2 [Example 13, [Ser8]-GLP-1(7-35)-GAm(28-42)-NH2]
remaining at 8 h, 0.5 μmol/L ([1]; rat, plasma): 88%
remaining at 48 h, 0.5 μmol/L ([1]; rat, plasma): 87%
Insulin secretion capacity (% of control) ([2]; MIN 6 cells, 15 mM glucose): 105%

HSEGTFTSDVSSYLEGQAAKEFIAWLVKGAKTVEGVKALIDEILAA [Example 18, [Ser8]-GLP-1(7-35)-GAm(28-44)]
remaining at 8 h, 0.5 μmol/L ([1]; rat, plasma): 99%
remaining at 48 h, 0.5 μmol/L ([1]; rat, plasma): 88%
Insulin secretion capacity (% of control) ([2]; MIN 6 cells, 15 mM glucose): 139%

HSEGTFTSDVSSYLEGQAAKEFIAWLVKGGVKALIDEILAA [Example 19, [Ser8]-GLP-1(7-35)-GAm(33-44)]
remaining at 8 h, 0.5 μmol/L ([1]; rat, plasma): 114%
remaining at 48 h, 0.5 μmol/L ([1]; rat, plasma): 102%
Insulin secretion capacity (% of control) ([2]; MIN 6 cells, 15 mM glucose): 89%

HSEGTFTSDVSSYLEGQAAKEFIAWLVKGGVKALIDEILAA-NH2 [Example 9, [Ser8]-GLP-1(7-35)-GAm(33-44)-NH2]
remaining at 8 h, 0.5 μmol/L ([1]; rat, plasma): 104%
remaining at 48 h, 0.5 μmol/L ([1]; rat, plasma): 93%
Insulin secretion capacity (% of control) ([2]; MIN 6 cells, 15 mM glucose): 118%

HSEGTFTSDVSSYLEGQAAKEFIAWLVKGINNAKTVEGVKALIDEILAALP-NH2 [Example 16, [Ser8]-GLP-1(7-35)-GAm(25-46)-NH2]
remaining at 8 h, 0.5 μmol/L ([1]; rat, plasma): 102%
remaining at 48 h, 0.5 μmol/L ([1]; rat, plasma): 93%
Insulin secretion capacity (% of control) ([2]; MIN 6 cells, 15 mM glucose): 104%

HSEGTFTSDVSSYLEGQAAKEFIAWLVKGKALIDEILAA-NH2 [Example 4, [Ser8]-GLP-1(7-35)-GAm(35-44)-NH2]
remaining at 8 h, 0.5 μmol/L ([1]; rat, plasma): 77%
remaining at 48 h, 0.5 μmol/L ([1]; rat, plasma): 117%
Insulin secretion capacity (% of control) ([2]; MIN 6 cells, 15 mM glucose): 115%

HSEGTFTSDVSSYLEGQAAKEFIAWLVKGNAKTVEGVKALIDEILAALP-NH2 [Example 15, [Ser8]-GLP-1(7-35)-GAm(27-46)-NH2]
remaining at 8 h, 0.5 μmol/L ([1]; rat, plasma): 111%
remaining at 48 h, 0.5 μmol/L ([1]; rat, plasma): 93%
Insulin secretion capacity (% of control) ([2]; MIN 6 cells, 15 mM glucose): 106%

HSEGTFTSDVSSYLEGQAAKEFIAWLVKGTVEGVKALIDEIL-NH2 [Example 12, [Ser8]-GLP-1(7-35)-GAm(30-42)-NH2]
remaining at 8 h, 0.5 μmol/L ([1]; rat, plasma): 105%
remaining at 48 h, 0.5 μmol/L ([1]; rat, plasma): 116%
Insulin secretion capacity (% of control) ([2]; MIN 6 cells, 15 mM glucose): 85%

HSEGTFTSDVSSYLEGQAAKEFIAWLVKGVEGVKALIDEILAA-NH2 [Example 11, [Ser8]-GLP-1(7-35)-GAm(31-44)-NH2]
remaining at 8 h, 0.5 μmol/L ([1]; rat, plasma): 99%
remaining at 48 h, 0.5 μmol/L ([1]; rat, plasma): 92%
Insulin secretion capacity (% of control) ([2]; MIN 6 cells, 15 mM glucose): 83%

HSEGTFTSDVSSYLEGQAAKEFIAWLVKGVSDYYKNLINNAKTVEGVKALIDEILAALP-NH2 [Comparative Example 5, [Ser8]-GLP-1(7-35)-GAm(17-46)-NH2, reference compound]
remaining at 8 h, 0.5 μmol/L [1, 3]: 105%
remaining at 48 h, 0.5 μmol/L [1, 4]: 105%
Remaining rate in plasma after 48 hours (%) [1, 5]: 105%
EC50 [2]: > 1 nM
Insulin secretion capacity (activity) compared with native GLP-1, in words [2]: hardly detected; also recorded: remarkably decreased

HSEGTFTSDVSSYLEGQAAKEFIAWLVKGYKNLINNAKTVEGVKALIDEILAALP-NH2 [Comparative Example 6, [Ser8]-GLP-1(7-35)-GAm(21-46)-NH2, reference compound]
remaining at 48 h, 0.5 μmol/L ([1]; rat, plasma): 84%
Insulin secretion capacity (% of control) ([2]; MIN 6 cells, 15 mM glucose): 45%

[Ser8]-GLP-1(7-35)-GAm(1-46)-NH2 [Comparative Example 4, reference compound]
Remaining rate in plasma after 48 hours (%) [1, 5]: 105%
Insulin secretion capacity (% of control) ([2]; MIN 6 cells, 15 mM glucose): 18%
EC50 ([2]; MIN 6 cells, 15 mM glucose, concentration for 50% of maximum activity of native GLP-1 at 1000 pM, read-out: EC50 value (nM), insulin secretion capacity): > 1 nM
Insulin secretion capacity (activity) compared with native GLP-1, in words [2]: remarkably impaired; also recorded: remarkably decreased
